“And” between values parts separate entries of the source, which are not always exact repeats. Equal values may be shown once.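 Interpolation was linear, between the two tested concentrations surrounding the appropriate level; five concentrations were tested over 48 hours in 96-well plates. GI50 is the concentration that inhibits growth by half. TGI: concentration producing complete growth inhibition.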 Some results are limits rather than exact numbers.

For this experiment, the system named is MDA-MB-468 breast. Kind of experiment: inhibition of tumour cell growth, NCI panel, 48 h.
For `CC(C)C[C@H](NC(=O)[C@@H](Cc1ccccc1)n1ccc(Nc2ccccc2)cc1=O)B(O)O`, the GI50 is 0.236 µM and the TGI was 1.29 µM. Regarding `CCN1CCN(Cc2ccc(Nc3ncc(F)c(-c4cc(F)c5nc(C)n(C(C)C)c5c4)n3)nc2)CC1`, the GI50 was 6.95 µM and the TGI was 14 µM.

`Cc1[nH]c(C(=O)Nc2cccc(OC3CCNCC3)c2)c(Cl)c1Cl`: the GI50 was 1.87 µM and the TGI amounted to 3.68 µM. For the compound `COc1ccc(OC)c(C2=C(c3cn(C)c4ccccc34)C(=O)NC2=O)c1`, the GI50 was greater than 25 µM and the TGI was greater than 25 µM. In the case of `COc1ccc2[nH]c(C(=O)OCc3ccc4c(Br)cc(Br)c(O)c4n3)cc2c1`, the GI50 was 0.822 µM and the TGI was 2.46 µM. On to `O=S(=O)(NCCNc1nccc(-c2c(-c3ccc(F)cc3)nc3sccn23)n1)c1ccc(O)cc1`, for which the GI50 is 3.37 µM and the TGI stood at 48.2 µM.

`COc1cc2c(Nc3ccc(-c4ccc(N)cc4)cc3)ncnc2c(OC)c1OC`: the GI50 is 11.2 µM and the TGI amounted to 49 µM.

For `Cc1ccc(NC(=S)NNC(=S)Nc2ccc(C)cc2)cc1`, the GI50 was 2.82 µM and the TGI was found to be 7.58 µM.

As for `Nc1c(C(=O)Nc2cccc(Cl)c2)sc2nc3c(cc12)C(O)CCC3` (stereo not drawn), the GI50 is 0.257 µM and the TGI was determined as 15.2 µM. With `COc1cccc(C(=O)NNc2nc(Cl)nc(N3CCN(C(c4ccccc4)c4ccccc4)CC3)n2)c1`, the GI50 was 2.4 µM and the TGI worked out at 8.11 µM. On to `CC(C)c1cnc(-c2cc(Cl)ccc2F)cc1Nc1ccncc1C(=O)NC(CO)CO`, for which the GI50 was 8.35 µM and the TGI was 32.7 µM. As to `O=C1/C(=C/c2ccc(Cl)cc2)CN(Cc2cn(CCCNc3ccnc4cc(Cl)ccc34)nn2)C/C1=C\c1ccc(Cl)cc1`, the GI50 is 1.4 µM and the TGI was found to be 3.5 µM.

Regarding `Cc1c(O)cccc1C(=O)N[C@@H](CSc1ccccc1)[C@H](O)CN1C[C@H]2CCCC[C@H]2C[C@H]1C(=O)NC(C)(C)C`, the GI50 was 3.89 µM and the TGI was found to be 15.2 µM. Regarding `CCN1CCN(Cc2ccc(NC(=O)Nc3nc(-c4cc(OC)c(OC)c(OC)c4)cs3)cc2C(F)(F)F)CC1`, the GI50 was 1.43 µM and the TGI is 3.03 µM. On to `CC(C)[C@@]12C[C@@H](OC(=O)COC(=O)c3ccccc3)[C@@](C)(O1)[C@@H]1CC[C@@H](C)[C@H]1[C@@H]2OC(=O)/C=C/c1ccccc1`, for which the GI50 was greater than 81.2 µM and the TGI is greater than 100 µM. For the compound `O=C1c2ccccc2C(=O)c2c1oc1cc(O)c(Cl)cc21`, the GI50 is 1.13 µM and the TGI stood at 7.23 µM. With `COc1ccccc1CNCCCN1C(=O)c2ccc3c4c(ccc(c24)C1=O)C(=O)N(CCCNCCCCNCCCN)C3=O`, the GI50 was 0.131 µM and the TGI is 0.273 µM. On the same counts, the results for `CS(=O)(=O)c1nccc(-c2c(-c3ccc(F)c(OCCc4ccccc4)c3)nc3sccn23)n1` are 2.57 µM and 7.36 µM. As to `NC(=O)c1c[nH]c2ncnc(N)c12`, the GI50 was 18.8 µM and the TGI worked out at 90.1 µM. For `Nc1nc2ccc(CNc3ccc(C(=O)NC(CC(=O)O)C(=O)O)cc3)cc2c(=O)[nH]1` (stereo not drawn) the same measures were 9.09 µM and greater than 100 µM. For `C#C[C@]1(O)CC[C@H]2[C@@H]3CC=C4c5sc(-c6ccc(C)cc6)nc5CC[C@]4(C)[C@H]3CC[C@@]21C`, the GI50 was greater than 100 µM and the TGI is greater than 100 µM.

On to `Cc1ccc(C2=NN(c3ccc(S(=O)(=O)NC(=O)NCc4ccccc4)cc3)C(c3ccc(N(C)C)cc3)C2)c(C)c1` (stereo not drawn), for which the GI50 was 2.36 µM and the TGI was determined as 6.11 µM. As to `COc1cc(/C=C2\CCC/C(=C\c3cc(CN4CCCC4)c(O)c(OC)c3)C2=O)cc(CN2CCCC2)c1O`, the GI50 is 1.7 µM and the TGI was determined as 4.07 µM. On the same counts, the results for `Cc1nc2ccc(-n3ncc(C(=O)c4cc5ccccc5[nH]4)c3N)cc2[nH]1` are 12.5 µM and 43.2 µM. Regarding `NS(=O)(=O)c1ccc(N=Nc2c(O)[nH]c3ccc(C(=O)NCCCn4ccnc4)cc23)cc1`, the GI50 was greater than 25 µM and the TGI was greater than 25 µM.

`COc1ccc(-c2nc3sccn3c2-c2ccnc(NCCNS(=O)(=O)c3ccc(C(F)(F)F)cc3)n2)cc1`: the GI50 was 1.19 µM and the TGI amounted to 7.62 µM. Turning to `Clc1nc(Cl)c2ncn(-c3ccccc3)c2n1`, the GI50 was 2.71 µM and the TGI is 8.39 µM.

Consider `COc1cccc2nc(Nc3cccc(NC(=O)c4ccc(N5CCN(C)CC5)c(C(F)(F)F)c4)c3)ccc12`, for which the GI50 was 1.11 µM and the TGI turned out to be 3.65 µM. With `CSC1=CC(=O)c2ccccc2C1=O`, the GI50 is 0.26 µM and the TGI stood at 1.09 µM.

As to `C[n+]1cccc(NC(=O)c2ccc3ccc4ccc(C(=O)Nc5ccc[n+](C)c5)nc4c3n2)c1`, the GI50 was 0.252 µM and the TGI was 1.29 µM. On to `c1cc[n+](Cc2c3ccccc3cc3c2ccc2ccccc23)cc1`, for which the GI50 was 0.426 µM and the TGI stood at 2.68 µM. For `Nc1nc(N)c2cc(S(=O)(=O)c3ccc4ccccc4c3)ccc2n1` the same measures were 2.43 µM and greater than 100 µM.

Regarding `CC[C@]12C=CCN3CC[C@@]4(c5ccc(OC)cc5N(C)[C@H]4[C@@](O)(C(=O)OC)[C@@H]1OC(=O)CCC(=O)O[C@H]1CC[C@H]4[C@@H]5CCC6=CC(=O)CC[C@@H]6[C@H]5CC[C@]14C)[C@@H]32`, the GI50 was 1.42 µM and the TGI was found to be 5.9 µM. In the case of `COc1ccc(-c2cc(=O)c3c(OC)c4ccoc4c(/C=C/C=O)c3o2)cc1`, the GI50 was 3.58 µM and the TGI was 14.4 µM. On to `CC1(C)CC[C@]23CC[C@]4(C)[C@H](CC[C@@H]5[C@@]6(C)CCCNC(C)(C)[C@@H]6CC[C@]54C)[C@H]2[C@H]1OC3`, for which the GI50 is 1.61 µM and the TGI was determined as 3.45 µM.

On to `CC1(C)N=C(N)N=C(N)N1c1ccc(OCC(=O)Nc2ccc(S(=O)(=O)F)cc2Cl)c(Cl)c1`, for which the GI50 was 1.84 µM and the TGI was greater than 100 µM.

For `ClC(Cl)c1nc(-c2ccco2)n2nc(-c3ccccc3)cc2n1`, the GI50 is 0.322 µM and the TGI stood at 1.15 µM.

In the case of `CCCCCCCCCCCCCCCC(=O)NS(=O)(=O)OC[C@H]1O[C@@H](n2cnc3c(N)ncnc32)[C@H](O)[C@@H]1O`, the GI50 is less than 0.0328 µM. The compound `COc1cc(C)c(-c2ccc(OC)c(=O)cc2C)c(OC)c1OC` showed a TGI greater than 100 µM. As to `CN1C(=O)C(N=Nc2ccc([N+](=O)[O-])cc2)SC1=S` (stereo not drawn), the GI50 was 4.33 µM and 9.92 µM; the TGI was 30.6 µM and 56.6 µM.

In the case of `CS(=O)(=O)Nc1cc(-c2ccc3ncc(C#N)c(Nc4ccc(F)c(Cl)c4)c3c2)cnc1Cl`, the GI50 was 0.0676 µM and the TGI was 0.396 µM. Take `COc1ccc(N=Nc2ccc(O)c(=O)cc2)cc1`: the GI50 was 2.61 µM and the TGI turned out to be 18.7 µM. On the same counts, the results for `C[C@@]12CC[C@@H](O)C[C@@H]1CC[C@H]1[C@H]2CC[C@@]2(C)[C@H](c3ccc(=O)oc3)CC[C@@]12O` are 0.0278 µM and 0.0811 µM. For `Cn1cc(-c2csc(-c3ccccc3)n2)c2cccnc21`, the GI50 was 14.2 µM and the TGI came to 48.4 µM. For `CS(=O)(=O)N1CCC(Nc2ncc(C(=O)c3c(F)cccc3F)c(N)n2)CC1` the same measures were 12.4 µM and greater than 25 µM. Turning to `CCc1ccc(Oc2c(-c3ccc(OCCc4cccc(C(F)(F)F)c4)cc3O)n[nH]c2C(F)(F)F)cc1`, the GI50 was 1.87 µM and the TGI is 7.96 µM. As for `O=C(O)c1ccc(CSc2nc3ccccc3[nH]2)cc1`, the GI50 is greater than 100 µM and the TGI was greater than 100 µM. Regarding `CCN1C(=O)/C(=c2\sc3n(c2=O)C2C(NN=3)N(CC)C(=O)N2CC)c2ccccc21` (stereo not drawn), the GI50 was 0.336 µM and the TGI worked out at 8.33 µM.

Consider `CC[C@]12C=CCN3CC[C@]4(C(=C(C(=O)OC)C1)Nc1cc5c(cc14)[C@@H]1[C@H](O5)[C@@H](O)[C@@]4(CC)CC(C(=O)OC)=C5Nc6ccccc6[C@@]56CCN1[C@@H]46)[C@@H]32`, for which the GI50 is 0.147 µM and 0.183 µM; the TGI is 1.54 µM and 1.62 µM. With `CCOc1cc(Cl)c(C(C)NC(=O)c2cccc(OC)c2)cc1OCC` (stereo not drawn), the GI50 is 3.38 µM and the TGI was 64.6 µM. On to `C=C(C(=O)c1ccccc1)C(NC(C)(C)C)c1ccccc1` (stereo not drawn), for which the GI50 was 0.566 µM and the TGI is 1.96 µM. On the same counts, the results for `CC(C)n1cc(-c2ccc3c(c2)N(C)CC3)c2c(NS(=O)(=O)c3ccn(C)n3)ccnc21` are 41.1 µM and greater than 100 µM. `O=C(/C=C(/C=C/c1cccc2[nH]ccc12)OB(F)F)/C=C/c1cccc2[nH]ccc12`: the GI50 is 0.473 µM and the TGI came to 3.12 µM.

Regarding `Cn1c2c(c3ccccc31)CCN1C[C@@H]3CCCC[C@H]3C[C@@H]21`, the GI50 is 1.77 µM and the TGI was determined as 8.73 µM. Take `CC(=O)Oc1ccc(C2OC(c3ccc4ccccc4c3OC(C)=O)=NN2C(C)=O)c(OC(C)=O)c1` (stereo not drawn): the GI50 is 0.401 µM and the TGI is 3.22 µM.
